Data from patent US8673894B2 (Hoffmann-La Roche Inc., priority 2010, dated 2014).
Counter-ions that a name gives are not always drawn.

Experiments:
Aβ40 = assay: Cellular Aβ-lowering assay; assay type: cell-based; conditions: HEK293 cells stably expressing human APP695, Aβ40 in supernatant by ELISA after 18-20 hrs; read-out: Cellular assay Abeta40 IC50
Protocol: Cellular Aβ-Lowering Assay:
Human HEK293 cells which are stably transfected with a vector expressing a cDNA of the human APP wt gene (APP695) were used to assess the potency of the compounds in a cellular assay. The cells were seeded in 96-well microtiter plates in cell culture medium (Iscove, plus 10% (v/v) fetal bovine serum, glutamine, penicillin/streptomycin) to about 80% confluence and the compounds were added at a 10× concentration in 1/10 volume of medium without FCS containing 8% DMSO (final concentration of DMSO was kept at 0.8% v/v). After 18-20 hrs incubation at 37° C. and 5% CO2 in a humidified incubator the culture supernatant was harvested for the determination of Aβ40 concentrations. 96well ELISA plates (e.g., Nunc MaxiSorb) were coated with monoclonal antibody which specifically recognize the C-terminal end of Aβ40 (Brockhaus et al., NeuroReport 9, 1481-1486; 1998). After blocking of non-specific binding sites with e.g. 1% BSA and washing, the culture supernatants were added in suitable dilutions together with a horseradish peroxidase-coupled Aβ detection antibody (e.g., antibody 4G8, Senetek, Maryland Heights, Mo.) and incubated for 5 to 7 hrs. Subsequently the wells of the microtiter plate were washed extensively with Tris-buffered saline containing 0.05% Tween 20 and the assay was developed with tetramethylbenzidine/H2O2 in citric acid buffer. After stopping the reaction with one volume 1 N H2SO4 the reaction was measured in an ELISA reader at 450 nm wavelength. The concentrations of Aβ in the culture supernatants were calculated from a standard curve obtained with known amounts of pure Aβ peptide.

[1] = target: T1, endogenous cellular BACE2 (Rattus norvegicus, UniProt Q6IE75); assay: Assay for BACE inhibition by measuring cellular TMEM27 cleavage; assay type: cell-based; conditions: INS-TMEM27 (INS1e-derived) cells, shed human TMEM27 in supernatant by ELISA
T1 construct: endogenous cellular BACE2 in the Ins1e rat cell line; endogenous in cells; host or cells: INS-TMEM27 (INS1e-derived rat insulinoma cell line with doxycycline-inducible full-length human TMEM27)
T1 sequence (Q6IE75 63-514): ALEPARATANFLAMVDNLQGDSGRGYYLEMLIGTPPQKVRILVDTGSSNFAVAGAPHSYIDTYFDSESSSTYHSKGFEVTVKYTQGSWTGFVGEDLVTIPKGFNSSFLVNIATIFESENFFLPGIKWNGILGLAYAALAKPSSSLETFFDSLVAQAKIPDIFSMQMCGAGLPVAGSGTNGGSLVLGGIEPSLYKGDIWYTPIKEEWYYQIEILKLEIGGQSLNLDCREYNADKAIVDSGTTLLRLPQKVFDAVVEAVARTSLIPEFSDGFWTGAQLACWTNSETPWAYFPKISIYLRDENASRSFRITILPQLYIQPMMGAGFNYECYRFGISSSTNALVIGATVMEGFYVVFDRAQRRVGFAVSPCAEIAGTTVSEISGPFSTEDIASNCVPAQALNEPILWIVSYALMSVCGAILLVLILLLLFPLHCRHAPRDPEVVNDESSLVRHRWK
Text: Assay for BACE Inhibition by Measuring Cellular TMEM27 Cleavage:
The assay uses the principle of inhibition of human TMEM27 cleavage by endogenous cellular BACE2 in the Ins1e rat cell line and shedding from the cell surface into the culture medium, followed by detection in an ELISA assay. Inhibition of BACE2 prevents the cleavage and shedding in a dose-dependent manner.
The stable cell line “INS-TMEM27” represents an INS1e-derived cell line with inducible expression (using the TetOn system) of full-length hTMEM27 in a doxycycline-dependent manner. The cells are cultured throughout the experiment in RPMI1640+ Glutamax (Invitrogen) Penicillin/Streptomycin, 10% Fetal bovine serum, […], […], 100 micrograms/ml G418 and 100 microgram/ml hygromycin and are grown inadherent culture at 37° C. in a standard CO2 cell culture incubator.
INS-TMEM27 cells are seeded in 96-well plates. After 2 days in culture, BACE2 inhibitor is added in a range of concentrations as required by the assay and after a further two hours, doxycycline is added to a final concentration of 500 ng/ml. The cells are incubated for a further 46 hours and the supernatant harvested for detection of shed TMEM27.
An ELISA assay (using a pair of mouse anti-human-TMEM27 antibodies, raised against the extracellular domain of TMEM27) is used for detection of TMEM27 in the culture medium. An EC50 for BACE2 inhibition is calculated using the ELISA readout for each inhibitor concentration with standard curve-fitting software such as XLFit for the Excel spreadsheet program.

| Compound | IC50 (Aβ40) | IC50 [1] |
| --- | --- | --- |
| Cc1cc(Cl)cnc1C(=O)Nc1ccc(F)c([C@@]2(C)N=C(N)COCC2(F)F)c1 [Example 31, (R)-N-(3-(3-amino-6,6-difluoro-5-methyl-2,5,6,7-tetrahydro-1,4-oxazepin-5-yl)-4-fluorophenyl)-5-chloro-3-methylpicolinamide formate] | 0.001 µM | 0.0026 µM |
| Cc1c[nH]nc1C(=O)Nc1ccc(F)c([C@@]2(C)N=C(N)COCC2(F)F)c1 [Example 97, (R)-N-(3-(3-Amino-6,6-difluoro-5-methyl-2,5,6,7-tetrahydro-1,4-oxazepin-5-yl)-4-fluorophenyl)-4-methyl-1H-pyrazole-3-carboxamide] | 0.22 µM | 0.444 µM |
| CC[C@]1(c2cc(NC(=O)c3cccnn3)ccc2F)N=C(N)COCC1(F)F [Example 81, (R)-N-(3-(3-Amino-5-ethyl-6,6-difluoro-2,5,6,7-tetrahydro-1,4-oxazepin-5-yl)-4-fluorophenyl)pyridazine-3-carboxamide] | 5.68 µM | 421 µM |
| C[C@]1(c2cc(NC(=O)c3csc(Cl)n3)ccc2F)N=C(N)COCC1(F)F [Example 66, (R)-N-(3-(3-Amino-6,6-difluoro-5-methyl-2,5,6,7-tetrahydro-1,4-oxazepin-5-yl)-4-fluorophenyl)-2-chlorothiazole-4-carboxamide formate] | 0.0153 µM | 0.0544 µM |
| CC(C)Oc1ccc(C(=O)Nc2ccc(F)c([C@@]3(C)N=C(N)COCC3(F)F)c2)nc1 [Example 67, (R)-N-(3-(3-Amino-6,6-difluoro-5-methyl-2,5,6,7-tetrahydro-1,4-oxazepin-5-yl)-4-fluorophenyl)-5-isopropoxypicolinamide formate] | 0.288 µM | 67.4 µM |
| CC[C@]1(c2cc(NC(=O)c3ccccn3)ccc2F)N=C(N)COCC1(F)F [Example 75, (R)-N-(3-(3-amino-5-ethyl-6,6-difluoro-2,5,6,7-tetrahydro-1,4-oxazepin-5-yl)-4-fluorophenyl)picolinamide] | 0.41 µM | 0.0898 µM |
| C[C@]1(c2cc(NC3CCCC3)ccc2F)N=C(N)COCC1(F)F [Example 64, (R)-5-(5-(cyclopentylamino)-2-fluorophenyl)-6,6-difluoro-5-methyl-2,5,6,7-tetrahydro-1,4-oxazepin-3-amine] | 0.36 µM | 0.4 µM |
| Cc1conc1C(=O)Nc1ccc(F)c([C@@]2(C)N=C(N)COCC2(F)F)c1 [Example 104, (R)-N(R)-N-(3-(3-Amino-6,6-difluoro-5-methyl-2,5,6,7-tetrahydro-1,4-oxazepin-5-yl)-4-fluorophenyl)-4-methylisoxazole-3-carboxamide] | 0.16 µM | 0.0956 µM |
| CC1(C)C[C@@](C)(c2cc(NC(=O)c3ccc(OC(F)F)cn3)ccc2F)N=C(N)CO1 [Example 11, 5-Difluoromethoxy-pyridine-2-carboxylic acid [3-((S)-3-amino-5,7,7-trimethyl-2,5,6,7-tetrahydro-[1,4]oxazepin-5-yl)-4-fluoro-phenyl]-amide] | 0.0021 µM | 0.002 µM |
| CC1(C)OCC(N)=N[C@](C)(c2cc(NC(=O)c3ccc(Cl)cn3)ccc2F)C1(F)F [Example 110, (R)-N-(3-(3-amino-6,6-difluoro-5,7,7-trimethyl-2,5,6,7-tetrahydro-1,4-oxazepin-5-yl)-4-fluorophenyl)-5-chloropicolinamide] | 0.0008 µM | 0.00903 µM |
| C[C@@]1(c2cc(NC(=O)c3ccc(Cl)cn3)ccc2F)CCOCC(N)=N1 [Example 5, 5-Chloro-pyridine-2-carboxylic acid [3-((S)-3-amino-5-methyl-2,5,6,7-tetrahydro-[1,4]oxazepin-5-yl)-4-fluoro-phenyl]-amide formate] | 0.0009 µM | 0.000885 µM |
| CC[C@]1(c2cc(NC(=O)c3ncccc3C(F)(F)F)ccc2F)N=C(N)COCC1(F)F [Example 77, (R)-N-(3-(3-Amino-5-ethyl-6,6-difluoro-2,5,6,7-tetrahydro-1,4-oxazepin-5-yl)-4-fluorophenyl)-3-(trifluoromethyl)picolinamide] | 0.75 µM | 0.179 µM |
| Cc1nc(C(=O)Nc2ccc(F)c([C@@]3(C)N=C(N)COCC3(F)F)c2)c(C(F)(F)F)o1 [Example 113, (R)-N-(3-(3-Amino-6,6-difluoro-5-methyl-2,5,6,7-tetrahydro-1,4-oxazepin-5-yl)-4-fluorophenyl)-2-methyl-5-(trifluoromethyl)oxazole-4-carboxamide] | 0.0358 µM | 0.123 µM |
| CC[C@@]1(c2cc(NC(=O)c3ccc(Cl)cn3)ccc2F)CCOCC(N)=N1 [Example 14, 5-Chloro-pyridine-2-carboxylic acid [3-((S)-3-amino-5-ethyl-2,5,6,7-tetrahydro-[1,4]oxazepin-5-yl)-4-fluoro-phenyl]-amide] | 0.093 µM | 0.0695 µM |
| C[C@]1(c2cc(NC(=O)c3ccc(C#N)cn3)ccc2F)N=C(N)COCC1(F)F [Example 30, (R)-N-(3-(3-amino-6,6-difluoro-5-methyl-2,5,6,7-tetrahydro-1,4-oxazepin-5-yl)-4-fluorophenyl)-5-cyanopicolinamide formate] | 0.0021 µM | 0.043 µM |
| Cn1ccc(C(=O)Nc2ccc(F)c([C@@]3(C)N=C(N)COCC3(F)F)c2)n1 [Example 43, (R)-N-(3-(3-amino-6,6-difluoro-5-methyl-2,5,6,7-tetrahydro-1,4-oxazepin-5-yl)-4-fluorophenyl)-1-methyl-1H-pyrazole-3-carboxamide formate] | 0.023 µM | 0.0047 µM |
| C[C@@]1(c2cc(NC(=O)C3(C(F)(F)F)CC3)ccc2F)CCOCC(N)=N1 [Example 17, 1-Trifluoromethyl-cyclopropanecarboxylic acid [3-((S)-3-amino-5-methyl-2,5,6,7-tetrahydro-[1,4]oxazepin-5-yl)-4-fluoro-phenyl]-amide] | 0.92 µM | 0.4 µM |
| C[C@]1(c2cc(NC(=O)c3ccn(C(F)F)n3)ccc2F)N=C(N)COCC1(F)F [Example 44, (R)-N-(3-(3-amino-6,6-difluoro-5-methyl-2,5,6,7-tetrahydro-1,4-oxazepin-5-yl)-4-fluorophenyl)-1-(difluoromethyl)-1H-pyrazole-3-carboxamide formate] | 0.0024 µM | 0.0012 µM |
| C[C@@]1(c2cc(NC(=O)c3ncc(C(F)(F)F)cc3Cl)ccc2F)COCCC(N)=N1 [Example 52, 3-Chloro-5-trifluoromethyl-pyridine-2-carboxylic acid [3-((R)-5-amino-3-methyl-2,3,6,7-tetrahydro-[1,4]oxazepin-3-yl)-4-fluoro-phenyl]-amide] | 0.049 µM | 0.12 µM |
| CC[C@]1(c2cc(NC(=O)c3ccc(F)cn3)ccc2F)N=C(N)COCC1(F)F [Example 78, (R)-N-(3-(3-Amino-5-ethyl-6,6-difluoro-2,5,6,7-tetrahydro-1,4-oxazepin-5-yl)-4-fluorophenyl)-5-fluoropicolinamide] | 0.06 µM | 0.0743 µM |
| C[C@@]1(c2cc(NC(=O)c3ccccn3)ccc2F)CCOCC(N)=N1 [Example 7, Pyridine-2-carboxylic acid [3-((S)-3-amino-5-methyl-2,5,6,7-tetrahydro-[1,4]oxazepin-5-yl)-4-fluoro-phenyl]-amide] | 0.016 µM | 0.00145 µM |
